Data from publication PMC4608580, “Synthesis and Evaluation of Biological Activity of Antimicrobial – Pro-Proliferative Peptide Conjugates” (PLoS ONE, 2015).

Tests used:
[1] = Circular dichroism, alpha-helical content; type: physicochemical; settings: CD, mean residue ellipticity at 222 nm (Eq 1), peptide 0.4 mg/ml in 30 mM SDS, room temperature
Protocol: Circullar dichroism spectra of analyzed compounds were recorded on a Jasco J-815 spectropolarimeter using a quartz cell of 1 mm path length between 195–260 nm at room temperature. Peptides at concentration of 0.4 mg/ml were dissolved in water or 30 mM SDS solution. SDS micelle system was used as the simplified model of negatively charged lipid membrane. On the basis of the obtained results the alpha-helical content was determined from the mean residue ellipticities at 222 nm according to Eq 1: %Helix=([θ]obs/([θ]helixx(1−2.57/l))x100, (1) where [θ] obs is the experimentally observed mean-residue ellipticity at 222 nm, [θ]helix is the theoretical ellipticity of peptide of infinite length with a 100% helix population, taken as -39 500 deg·cm^2/dmol, and l is the number of peptide bonds.
Circular dichroism method was applied to obtain a basic information about the secondary structure of the synthesized compounds (with the exception of CAR, CAR3, DAL, CTEN2) in two chemical environments, water and 30 mM SDS. As expected, all the tested compounds in water adopted a random-coil structure, while in the presence of 30 mM SDS most of them formed α-helices with characteristic negative minima around 208 and 220 nm. […] The examples of CD spectra for selected peptides could be seen in supporting information (Figure A in S1 File). On the basis of the experimentally obtained values of the mean residue ellipticities of peptides at 222 nm their alpha-helical content was calculated according to the Eq 1 (Table 1).

[2] = tested on: B. cereus; type: cell-based; settings: broth microdilution, Mueller-Hinton broth, approximately 10^5 CFU/mL, 37°C, 24 h, absorbance 590 nm, at least triplicate
Protocol: (§1) Luria-Bertani broth (LB) and Sabouraud Dextrose broth (SB) (Biocorp, Poland) were used for cultivation of bacteria and fungi strains, respectively. Antimicrobial activity of peptides was analyzed through determination of MIC (minimal inhibitory concentration) parameter according to the standard microdilution technique performed on 96-well plates. Mueller-Hinton broth (MHB) was used as the working medium for all bacterial strains, while in case of fungi it was additionally supplemented with 2% glucose.
(§2) Briefly, inoculum was prepared from freshly grown cultures of microorganisms being at their exponential phase of growth. Each well of 96-well plates containing 100 μL of serially diluted peptides in PBS (phosphate buffer saline) at concentration ranging from 2 to 250 μg/mL were inoculated with 100 μL of approximately 10^5 CFU/mL of bacterial suspension or about 2.5 x 10^3 CFU/mL of fungi suspended in a double concentrated Mueller-Hinton broth (supplemented with 2% glucose for Candida spps.). Then plates were incubated overnight at 37°C and absorbance was read at 590 nm after 24 h. Cultures without peptide were treated as positive control, while uninoculated Mueller-Hinton broth was defined as negative control. All measurements were run at least in triplicate.
(§3) All peptides were screened against the wide range of microorganisms, including Gram-negative, Gram-positive bacteria and fungi from Candida species (Table 2). Broth microdilution method for MIC determination was used as a standard procedure. All assays were performed on liquid Mueller-Hinton broth, which was additionally supplemented with 2% glucose when fungicidal activity towards Candida spps. was analyzed.

[3] = tested on: B. subtilis; type: cell-based; settings: broth microdilution, Mueller-Hinton broth, approximately 10^5 CFU/mL, 37°C, 24 h, absorbance 590 nm, at least triplicate
Protocol: as §1, §2, §3

[4] = tested on: Candida glabrata (CCM 8270); type: cell-based; settings: broth microdilution, Mueller-Hinton broth + 2% glucose, about 2.5 x 10^3 CFU/mL, 37°C, 24 h, absorbance 590 nm, at least triplicate
Text: (§4) Escherichia coli (PCM 2057), Staphylococcus aureus (PCM 2054), Staphylococcus epidermidis (PCM 2118), Pseudomonas aeruginosa (PCM 499) were obtained from Polish Collection of Microorganisms. Fungi strains Candida albicans (CCM 8186), Candida glabrata (CCM 8270), Candida parapsilosis (CCM 8260), Candida krusei (CCM 8271), Candida tropicalis (CCM 8264) were acquired from Czech Collection of Microorganisms.
as §1, §2, §3

[5] = tested on: Candida krusei (CCM 8271); type: cell-based; settings: broth microdilution, Mueller-Hinton broth + 2% glucose, about 2.5 x 10^3 CFU/mL, 37°C, 24 h, absorbance 590 nm, at least triplicate
Text: as §4, §1, §2, §3

[6] = tested on: Staphylococcus aureus (PCM 2054); type: cell-based; settings: broth microdilution, Mueller-Hinton broth, approximately 10^5 CFU/mL, 37°C, 24 h, absorbance 590 nm, at least triplicate
Text: as §4, §1, §2, §3

[7] = tested on: Pseudomonas aeruginosa (PCM 499); type: cell-based; settings: broth microdilution, Mueller-Hinton broth, approximately 10^5 CFU/mL, 37°C, 24 h, absorbance 590 nm, at least triplicate
Text: as §4, §1, §2, §3

[8] = tested on: Candida parapsilosis (CCM 8260); type: cell-based; settings: broth microdilution, Mueller-Hinton broth + 2% glucose, about 2.5 x 10^3 CFU/mL, 37°C, 24 h, absorbance 590 nm, at least triplicate
Text: as §4, §1, §2, §3

[9] = tested on: Candida tropicalis (CCM 8264); type: cell-based; settings: broth microdilution, Mueller-Hinton broth + 2% glucose, about 2.5 x 10^3 CFU/mL, 37°C, 24 h, absorbance 590 nm, at least triplicate
Text: as §4, §1, §2, §3

[10] = tested on: Candida albicans (CCM 8186); type: cell-based; settings: broth microdilution, Mueller-Hinton broth + 2% glucose, about 2.5 x 10^3 CFU/mL, 37°C, 24 h, absorbance 590 nm, peptide 2 to 250 μg/mL, at least triplicate
Text: as §4, §1, §2, §3

[11] = tested on: Staphylococcus epidermidis (PCM 2118); type: cell-based; settings: broth microdilution, Mueller-Hinton broth, approximately 10^5 CFU/mL, 37°C, 24 h, absorbance 590 nm, at least triplicate
Text: as §4, §1, §2, §3

[12] = tested on: Escherichia coli (PCM 2057); type: cell-based; settings: broth microdilution, Mueller-Hinton broth, approximately 10^5 CFU/mL, 37°C, 24 h, absorbance 590 nm, at least triplicate
Text: as §4, §1, §2, §3

Substance | α-helicity [1] | MIC B. cereus [2] | MIC B. subtilis [3] | MIC C.glabrata [4] | MIC C.krusei [5] | MIC S.aureus [6] | MIC P. aeruginosa [7] | MIC C. parapsilosis [8] | MIC C.tropicalis [9] | MIC C. albicans [10] | MIC S. epidermidis [11] | MIC E.coli [12]
IKKILSKIKKLL-NH2 [DK5, Lys-rich derivative of amphibian AMP temporin-1CEb, …-NH2, reference compound] | 29% | >125 µg/mL | 15.6 µg/mL | 62.5 µg/mL | 7.8 µg/mL | >125 µg/mL | 50 µg/mL | 31.3 µg/mL | < 2 µg/mL | 31.3 µg/mL | 7.8 µg/mL | >125 µg/mL
YAGFLR-PEG-IKKILSKIKKLL-NH2 [DAL-PEG-DK5, conjugate of dalargin and DK5 joined by PEG-linker] | 35% | 25 µg/mL | 2.0 µg/mL | 125 µg/mL | 3.9 µg/mL | 50 µg/mL | 25 µg/mL | 2.0 µg/mL | <2 µg/mL | 25 µg/mL | 7.8 µg/mL | 25 µg/mL
YAGFLR-PEG-IKKILSKIKKLLK-NH2 [DAL-PEG-LK6, conjugate of dalargin and LK6 joined by PEG-linker] | 25% | 12.5 µg/mL | 7.8 µg/mL | >125 µg/mL | 7.8 µg/mL | 25 µg/mL | 25 µg/mL | 2.0 µg/mL | 3.9 µg/mL | 25 µg/mL | 7.8 µg/mL | 25 µg/mL
